# Where two headings read alike, the source gives them in different places. Marks after values point to notes of the source that are not given here.
# Columns and labels:
# [1] = Pharmacokinetics of probe drug cocktail (bupropion, midazolam) and their metabolites before and after QHS-PQ; type: in vivo, human; conditions: for Tmax / T max: value (range); for Geometric mean ratio (90% CI) of AUC 0-t /dose / Geometric mean ratio (90% CI) of C max / Geometric mean ratio (90% CI) of CL/F / Geometric mean ratio (90% CI) of MRT: 2-day (after QHS-PQ) versus 1-day (day -14); for AUC 0-t /dose: mean ± sd
# Method: The chromatography was performed at 22°C. The mobile phase consisted of B (acetonitrile) and A (0.1% formic acid in water), which increased linearly from 20% B to 90% B during 7 min before column re-equilibration at a flow rate of 0.3 mL/min.
# Plasma samples were subjected to a protein precipitation extraction process. A 100 μL aliquot of human plasma was mixed with 25 μL of acetonitrile and 200 μL of IS (1 μM of alprazolam, prepared in acetonitrile). The mixture was mixed and centrifuged at 3,000 g for 10 min. Aliquots (20 μL) of the solution were injected onto LC-MS analysis. […] This mixture was treated as above. […] Plasma samples were diluted with blank plasma and reanalysed when the concentration of any analyte was higher than the upper limit of quantification.
# Venous blood samples (2 mL) for analysis of probe drugs and their metabolites were taken from an indwelling intravenous catheter at 0, 0.25, 0.75, 1.5, 2.0, 3.0, 4.0, 5.0, 7.0, 11.0, 24.0, 36.0, and 48.0 hours.
# (§1) The peak plasma concentration (Cmax) and time-to-peak concentration (Tmax) were obtained from experimental observations. The other pharmacokinetic parameters were analysed by non-compartmental model using the program TOPFIT (version 2.0; Thomae GmbH, Germany). The area under the plasma concentration-time curve (AUC o-t ) was calculated using the linear trapezoidal rule to approximately the last point. The mean residence time (MRT) was obtained by dividing the area under the first moment-time curve (AUMC 0-t ) by the area under the curve (AUC 0-t ). Total oral body clearance (CL/F) was calculated as dose/AUC 0-t .
# (§2) Results were expressed as mean ± SD. The two-tailed t-test was used for paired comparison of the pharmacokinetic parameters between the single dose and multiple doses after logarithmic transformation. Geometric mean ratios with 90% confidence intervals (CIs) were calculated after log transformation of within-subject data. The comparison of Tmax for the different treatment groups was performed using the Wilcoxon signed-rank test. The acceptable level of significance was established at P < 0.05 or P < 0.01.
# [2] = Pharmacokinetics of QHS and its phase I/II metabolites in plasma after oral QHS-PQ (Artequick); conditions: for CL/F / Cmax / MRT / AUC 0-t /dose: mean ± sd; for Cmax / MRT / Tmax: in vivo; for Cmax: C max; for Tmax: T max
# Method: The chromatography was performed at 22°C. The mobile phase consisted of acetonitrile and 5 mM aqueous ammonium acetate containing 0.1% (v/v) formic acid, delivered at a flow rate of 0.35 mL/min. The gradient chromatographic conditions were shown in the previous report. The autosampler was set at 4°C.
# Plasma samples were subjected to a protein precipitation extraction process, which was performed on ice. A 100 μL aliquot of human plasma was mixed with 25 μL of acetonitrile and 200 μL of IS (1 μM of ARM, prepared in acetonitrile). The mixture was mixed and centrifuged at 3,000 g for 10 min. Aliquots (20 μL) of the solution were injected onto LC-MS analysis. […] This mixture was treated as above.
# Plasma was separated by centrifugation at 3,000 g for 10 min at 4°C. The plasma was stored at -80°C until analysis.
# as §1, §2
# [3] = Bench-top stability of QC samples in human plasma on ice; type: in vitro ADME; conditions: human plasma on ice for at least 2 hours; difference < 15%
# [4] = cited from earlier work
# [5] = tested on: CAR1/3; conditions: cited from earlier work
# [6] = tested on: PXR; conditions: cited from earlier work
# [7] = human, plasma, oral, row '1-day': probe cocktail before QHS-PQ (day -14)
# [8] = human, plasma, oral, row '1-day': probe cocktail before QHS-PQ (day -14), read-out: CL/F (converted)
# [9] = human, plasma, oral, row '1-day': probe cocktail before QHS-PQ (day -14), read-out: MRT
# [10] = human, plasma, oral, row '2-day': probe cocktail after second dose of QHS-PQ
# [11] = human, plasma, oral, row '2-day': probe cocktail after second dose of QHS-PQ, read-out: CL/F (converted)
# [12] = human, plasma, oral, row '2-day': probe cocktail after second dose of QHS-PQ, read-out: MRT
# [13] = listed as '1-day': oral probe cocktail (bupropion 75 mg, midazolam 15 mg) on day -14, before QHS-PQ
# [14] = listed as '1-day': probe cocktail before QHS-PQ (day -14)
# [15] = listed as '2-day': probe cocktail 1 hour after second oral dose of QHS-PQ (day 2)
# [16] = listed as '2-day': probe cocktail after second dose of QHS-PQ
# [17] = human, po, 2-day oral QHS-PQ, value (range)
compound,measurement,setting,value
"Cc1ncc2n1-c1ccc(Cl)cc1C(c1ccccc1F)=NC2 [MDZ, midazolam]",Cmax,[1]; [7],206 ± 115 nM
same,Tmax,[1]; [7],1.3 h
same,CL/F,[1]; [8],18.2 mL/min/kg
same,MRT,[1]; [9],4.1 ± 0.7 h
same,Cmax,[1]; [10],305 ± 115 nM
same,Tmax,[1]; [10],0.8 h
same,CL/F,[1]; [11],11.7 mL/min/kg
same,MRT,[1]; [12],4.2 ± 0.7 h
(±)-hydroxybupropion [OH-BUP],Geometric mean ratio (90% CI) of AUC 0-t /dose,[1],"2.05 (1.83, 2.30)**"
same,Geometric mean ratio (90% CI) of C max,[1],"1.65 (1.51, 1.82)**"
same,Geometric mean ratio (90% CI) of CL/F,[1],"0.49 (0.43, 0.55)**"
same,Geometric mean ratio (90% CI) of MRT,[1],"1.04 (1.00, 1.07)"
same,AUC 0-t /dose,[1]; [13],3.98 ± 1.45 kg·h/L
same,CL/F,[1]; [14],4.83 ± 1.83 mL/min/kg
same,Cmax,[1]; [14],518 ± 162 nM
same,MRT,[1]; [14],19.4 ± 1.4 h
same,T max,[1]; [14],"5.2 (3.0, 11.0) h"
same,AUC 0-t /dose,[1]; [15],8.22 ± 3.43** h·kg·L^-1
same,CL/F,[1]; [16],2.33 ± 0.83 mL/min/kg
same,Cmax,[1]; [16],857 ± 245 nM
same,MRT,[1]; [16],20.2 ± 1.5 h
same,T max,[1]; [16],"7.6 (3.0, 24.0) h"
"OCc1ncc2n1-c1ccc(Cl)cc1C(c1ccccc1F)=NC2 [OH-MDZ, α-hydroxymidazolam]",Geometric mean ratio (90% CI) of AUC 0-t /dose,[1],"4.99 (4.66, 5.33)**"
same,Geometric mean ratio (90% CI) of C max,[1],"2.95 (2.44, 3.56)**"
same,Geometric mean ratio (90% CI) of CL/F,[1],"0.19 (0.18, 0.21)**"
same,Geometric mean ratio (90% CI) of MRT,[1],"1.14 (1.01, 1.28)"
same,AUC 0-t /dose,[1]; [13],0.32 ± 0.09 kg·h/L
same,CL/F,[1]; [14],55.2 ± 14 mL/min/kg
same,Cmax,[1]; [14],82.3 ± 50.3 nM
same,MRT,[1]; [14],3.7 ± 1.0 h
same,T max,[1]; [14],"1.1 (0.3, 2.0) h"
same,AUC 0-t /dose,[1]; [15],1.60 ± 0.26** h·kg·L^-1
same,CL/F,[1]; [16],10.7 ± 1.83 mL/min/kg
same,Cmax,[1]; [16],243 ± 82 nM
same,MRT,[1]; [16],4.2 ± 0.5 h
same,T max,[1]; [16],"1.5 (0.8, 3.0) h"
"C[C@@H]1CC[C@H]2[C@@H](C)C(=O)O[C@@H]3O[C@@]4(C)CC[C@@H]1[C@]32OO4 [QHS, Artemisinin, reference compound]",CL/F,"[2]; 1-day oral QHS-PQ, dose/AUC0-t",164 ± 138 mL/min/kg
same,"change of Cmax, Tmax and MRT after repeated drug dosing",[2]; P > 0.05,did not change
same,inter-individual variability (%CV) for AUC 0-t,"[2]; after the first dose, range 6.9-122.7%",43.5%
same,Cmax,"[2]; human, po, 1-day oral QHS-PQ",304 ± 192 nM
same,Cmax,"[2]; human, po, 2-day oral QHS-PQ",221 ± 118 nM
same,MRT,"[2]; human, po, 1-day oral QHS-PQ",3.2 ± 0.9 h
same,MRT,"[2]; human, po, 2-day oral QHS-PQ",2.9 ± 0.9 h
same,Tmax,[2]; [17],1.4 h
same,CL/F,"[2]; human, plasma, po, CL/F, 1-day oral QHS-PQ, dose/AUC0-t",163 mL/min/kg
same,CL/F,"[2]; human, plasma, po, CL/F, 2-day oral QHS-PQ",277 mL/min/kg
same,"decrease in AUC 0-t, second oral dose compared with the first dose","[2]; oral QHS-PQ, two consecutive days",35.2%
same,stability in plasma,[3],stable
same,"dose-normalized AUC, reported range",[4]; healthy subjects and patients who received 500 mg of QHS,0.06 to 0.31 kg·h/L
same,"dose-normalized AUC, reported range","[4]; infected children, dose […]",0.33 to 0.49 kg·h/L
"CC(NC(C)(C)C)C(=O)c1cccc(Cl)c1 (centres unmarked) [BUP, Bupropion]",Cmax,[1]; [7],328 ± 181 nM
same,Tmax,[1]; [7],2.1 h
same,CL/F,[1]; [8],62.2 mL/min/kg
same,MRT,[1]; [9],6.8 ± 1.9 h
same,Cmax,[1]; [10],306 ± 147 nM
same,Tmax,[1]; [10],2.5 h
same,CL/F,[1]; [11],63 mL/min/kg
same,MRT,[1]; [12],6.1 ± 1.7 h
"C[C@@H]1CC[C@H]2[C@@H](C)C(=O)O[C@@H]3O[C@@]4(C)CC[C@@H]1[C@]32O4 [DeoxyQHS, Deoxyartemisinin]",AUC 0-t /dose,"[2]; 1-day (first oral dose of QHS-PQ, 1.8 mg/kg QHS plus 10.6 mg/kg piperaquine), 14 healthy Chinese, plasma",0.09 ± 0.05** h·kg·L^-1
same,T max,"[2]; 1-day oral QHS-PQ, value (range)","2.2 (1.25, 4.0) h"
same,AUC 0-t /dose,[2]; 2-day (second daily oral dose of QHS-PQ),0.06 ± 0.04** h·kg·L^-1
same,Geometric mean ratio (90% CI) of AUC 0-t /dose,[2]; 2-day versus 1-day oral QHS-PQ,"0.68 (0.58, 0.79)**"
same,Geometric mean ratio (90% CI) of AUC M /AUC QHS,[2]; 2-day versus 1-day oral QHS-PQ,"1.18 (0.97, 1.43)"
same,Geometric mean ratio (90% CI) of C max,[2]; 2-day versus 1-day oral QHS-PQ,"0.78 (0.69, 0.89)*"
same,Geometric mean ratio (90% CI) of CL/F,[2]; 2-day versus 1-day oral QHS-PQ,"1.68 (1.45, 1.95)**"
same,Geometric mean ratio (90% CI) of MRT,[2]; 2-day versus 1-day oral QHS-PQ,"0.89 (0.79, 0.99)"
same,change of Tmax and MRT after repeated drug dosing,[2]; P > 0.05,did not change
same,Cmax,"[2]; human, po, 1-day oral QHS-PQ",71 ± 46.1 nM
same,Cmax,"[2]; human, po, 2-day oral QHS-PQ",55.6 ± 33.3 nM
same,MRT,"[2]; human, po, 1-day oral QHS-PQ",7.1 ± 0.6 h
same,MRT,"[2]; human, po, 2-day oral QHS-PQ",6.2 ± 1.5 h
same,Tmax,"[2]; human, po, 1-day oral QHS-PQ, value (range)",1.3 to 4 h
same,Tmax,[2]; [17],2.3 h
same,decrease in AUC 0-t after multiple oral doses,"[2]; in 13 out of 14 subjects, range 20.3-71.8%",34.7%
same,decrease of metabolic capability AUCdeoxy-QHS/AUCQHS after the second dose,[2]; in four subjects,41.6%
same,increase of metabolic capability AUCdeoxy-QHS/AUCQHS after the second dose,[2]; in six subjects,1.6 fold
same,increase of CL/F after the second dose,[2]; second versus first oral dose of QHS-PQ,1.7 fold
same,stability in plasma,[3],stable
same,activity at CAR1/3,[5],agonist
same,activity at PXR,[6],agonist

# Reference: article PMC4055232 (Malaria Journal, 2014)
